Assay [1] addresses T1, E. cloacae P99 (Enterobacter cloacae, UniProt P05364).
T1 construct: made in house
As to conditions: E. cloacae P99, ambient temperature, pH 7.0, nitrocefin; ref 6 and 7; cited from earlier work.

Assay [2] addresses T2, KPC-2 (Klebsiella pneumoniae, UniProt Q9F663).
T2 construct: made in house
Description: Partition ratio measurement. It is filed as biochemical. On the procedure:
(§1) Partition ratios were measured as described previously[10] at ambient temperature in Buffer A. ETX1317 was freshly dissolved in assay buffer and an arithmetic dilution series was prepared from 0 to 12 μM in 1.2 μM steps. Each of these was mixed with an equal volume of 6 μM β-lactamase. At each time point, the mixtures were diluted in buffer to 2-fold the final reaction concentration of enzyme. Then, 22.5 μL of enzyme + inhibitor solutions were mixed with 22.5 μL of 200 μM nitrocefin substrate in a clear polystyrene 384-well assay plate. The absorbance at 490 nm was monitored at 10-s intervals for 10 min with a Spectramax Plus 384 plate reader. The slopes of the progress curves (ΔA490/s) were calculated. The percent of the control value for each inhibitor concentration was plotted versus the inhibitor:enzyme molar ratio. A best-fit line was calculated with a fixed point at 100% on the y-axis.

Assay [3] concerns the target T3, CTX-M-15 (Escherichia coli, UniProt Q9EXV5).
T3 construct: made in house
Description: Partition ratio measurement. It is filed as biochemical. As to conditions: CTX-M-15, incubation 1 h, ambient temperature. The method, then:
as §1

Assay [4] deals with T4, OXA-48 (Klebsiella pneumoniae, UniProt Q6XEC0).
T4 construct: made in house
T4 sequence (Q6XEC0 23-265, looked up, species assumed): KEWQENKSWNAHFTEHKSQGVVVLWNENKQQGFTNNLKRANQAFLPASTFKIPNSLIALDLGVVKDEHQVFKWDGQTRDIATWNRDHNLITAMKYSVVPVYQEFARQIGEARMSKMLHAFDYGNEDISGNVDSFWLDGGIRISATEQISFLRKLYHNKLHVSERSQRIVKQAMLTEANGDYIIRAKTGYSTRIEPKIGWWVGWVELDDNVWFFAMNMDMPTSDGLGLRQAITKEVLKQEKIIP
Description: Partition ratio measurement. It counts as biochemical. As to conditions: OXA-48, incubation 1 h, ambient temperature. On the procedure:
as §1

The target of assay [5] is T5, SHV-5 (Klebsiella pneumoniae, UniProt P0A3M1).
T5 construct: made in house
T5 sequence (P0A3M1 22-286, species assumed): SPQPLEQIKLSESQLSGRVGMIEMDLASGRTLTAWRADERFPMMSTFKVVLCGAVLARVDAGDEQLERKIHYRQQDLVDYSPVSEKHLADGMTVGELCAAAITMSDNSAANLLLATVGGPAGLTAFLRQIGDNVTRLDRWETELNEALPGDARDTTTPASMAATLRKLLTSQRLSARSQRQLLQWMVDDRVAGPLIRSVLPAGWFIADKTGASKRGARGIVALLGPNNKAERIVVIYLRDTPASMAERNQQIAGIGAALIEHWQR
Description: Partition ratio measurement. It is filed as biochemical. Conditions: SHV-5, incubation 1 h, ambient temperature. On the procedure: as §1

The target in a further assay is T6, AmpC (Pseudomonas aeruginosa, UniProt P24735).
T6 construct: made in house
T6 sequence (P24735 27-397): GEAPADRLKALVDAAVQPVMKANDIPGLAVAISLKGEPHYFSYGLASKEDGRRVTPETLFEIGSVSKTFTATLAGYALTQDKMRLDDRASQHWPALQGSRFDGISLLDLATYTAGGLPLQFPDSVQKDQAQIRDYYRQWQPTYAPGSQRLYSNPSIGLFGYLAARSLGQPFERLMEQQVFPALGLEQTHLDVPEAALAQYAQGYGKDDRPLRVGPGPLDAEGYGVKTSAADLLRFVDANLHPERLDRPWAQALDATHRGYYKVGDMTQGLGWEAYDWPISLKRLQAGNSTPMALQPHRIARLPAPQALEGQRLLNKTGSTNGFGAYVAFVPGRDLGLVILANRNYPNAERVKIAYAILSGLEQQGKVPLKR
Description: Partition ratio measurement. It is filed as biochemical. Conditions: incubation 1 h, ambient temperature. The method, then:
as §1

For assay [6], the target named is T3, CTX-M-15. Conditions: CTX-M-15, ambient temperature, pH 7.0, nitrocefin; ref 6 and 7; cited from earlier work.
The target of assay [7] is T2, KPC-2. Conditions: KPC-2, ambient temperature, pH 7.0, nitrocefin; ref 6 and 7; cited from earlier work.
In another assay the test system is CTX-M-14. Further details: method as in PMID 32658473. As to conditions: higher than that of avibactam; cited from earlier work.
Assay [8] has as its target T1, E. cloacae P99. Description: koff measurement by jump dilution. It counts as biochemical. Conditions: ambient temperature. On the procedure:
(§2) Dissociation rate constants (koff) were measured by the jump-dilution method at ambient temperature as described previously.[10] Enzymes at 500 000-fold the final β-lactamase assay concentration (see above) were incubated for 15–20 min with 3-fold molar excess of freshly dissolved ETX1317 at ambient temperature in Buffer A. The mixtures were then diluted 250 000-fold with Buffer A, and 22.5 μL of the dilutions was mixed with 22.5 μL of 200 μM nitrocefin in Buffer A. The absorbance at 490 nm was monitored at 30 s intervals for 2 h at ambient temperature with a Spectramax Plus 384 plate reader. Progress curves were fit by nonlinear regression using XLfit (ID Business Solutions, Boston, MA) to the following equation: [drawing 2] where P is A490, C is the initial A490, V0 is the initial rate of absorbance increase, Vs is the final rate of absorbance increase, t is time in seconds, and k is the first order rate constant for enzyme reactivation due to inhibitor dissociation, koff.

Assay [9] deals with T2, KPC-2. Description: koff measurement by jump dilution. It counts as biochemical. As to conditions: KPC-2, jump dilution, ambient temperature. On the procedure: as §2
For assay [10], the target named is T3, CTX-M-15. Description: koff measurement by jump dilution. It is filed as biochemical. As to conditions: CTX-M-15, jump dilution, ambient temperature. The method, then:
as §2

Assay [11] deals with T7, TEM-1 (Escherichia coli, UniProt P62593).
T7 construct: made in house
T7 sequence (P62593 24-286 limits assumed): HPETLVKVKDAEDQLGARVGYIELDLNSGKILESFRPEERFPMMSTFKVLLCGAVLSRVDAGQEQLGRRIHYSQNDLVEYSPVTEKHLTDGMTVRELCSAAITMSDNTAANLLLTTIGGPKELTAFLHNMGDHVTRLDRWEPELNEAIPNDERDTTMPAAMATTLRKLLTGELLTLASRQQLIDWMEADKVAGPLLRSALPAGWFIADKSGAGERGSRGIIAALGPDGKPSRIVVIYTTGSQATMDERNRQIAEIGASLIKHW
Description: koff measurement by jump dilution. It counts as biochemical. As to conditions: TEM-1, jump dilution, ambient temperature. On the procedure: as §2

The target in assay [12] is T5, SHV-5. Description: koff measurement by jump dilution. It counts as biochemical. As to conditions: SHV-5, jump dilution, ambient temperature. The method, then:
as §2

The target in a further assay is T8, P. aeruginosa AmpC (Pseudomonas aeruginosa, UniProt P24735).
T8 construct: made in house
T8 sequence (P24735 27-397): as the sequence (P24735 27-397) above
Description: koff measurement by jump dilution. It is filed as biochemical. Conditions: ambient temperature. On the procedure:
as §2

Assay [13] addresses T7, TEM-1. More on the design: method as in PMID 28665414, PMID 32658473. As to conditions: TEM-1; equilibrium dissociation constant, inhibition not time-dependent on 30 s time scale; ref 6 and 7; cited from earlier work.
The target of assay [14] is T4, OXA-48. Conditions: OXA-48, ambient temperature, pH 7.0, nitrocefin; ref 6 and 7; cited from earlier work.
The target in a further assay is OXA-24. As to conditions: OXA-24, ambient temperature, pH 7.0, nitrocefin; ref 6 and 7; cited from earlier work.

Here are results for one compound from publication PMC7837508, “Interactions of the Diazabicyclooctane Serine β-Lactamase Inhibitor ETX1317 with Target Enzymes” (ACS Infectious Diseases, 2020).

T3 sequence (Q9EXV5 29-291, species assumed): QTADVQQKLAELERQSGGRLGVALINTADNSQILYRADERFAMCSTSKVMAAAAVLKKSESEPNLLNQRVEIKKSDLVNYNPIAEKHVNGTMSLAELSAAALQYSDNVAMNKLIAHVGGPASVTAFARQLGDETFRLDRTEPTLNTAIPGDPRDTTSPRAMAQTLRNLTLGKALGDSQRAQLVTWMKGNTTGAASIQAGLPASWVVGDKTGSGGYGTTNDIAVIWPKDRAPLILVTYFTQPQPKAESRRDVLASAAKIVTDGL
T2 sequence (Q9F663 25-293, looked up, species assumed): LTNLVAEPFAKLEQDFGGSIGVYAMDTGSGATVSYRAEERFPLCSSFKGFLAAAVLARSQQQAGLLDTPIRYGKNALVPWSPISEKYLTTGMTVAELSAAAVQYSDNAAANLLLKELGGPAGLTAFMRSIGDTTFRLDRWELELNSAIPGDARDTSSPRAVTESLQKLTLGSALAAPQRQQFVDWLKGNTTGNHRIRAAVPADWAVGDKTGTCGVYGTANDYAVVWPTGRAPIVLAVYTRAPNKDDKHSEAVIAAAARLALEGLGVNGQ
T1 sequence (P05364 21-381): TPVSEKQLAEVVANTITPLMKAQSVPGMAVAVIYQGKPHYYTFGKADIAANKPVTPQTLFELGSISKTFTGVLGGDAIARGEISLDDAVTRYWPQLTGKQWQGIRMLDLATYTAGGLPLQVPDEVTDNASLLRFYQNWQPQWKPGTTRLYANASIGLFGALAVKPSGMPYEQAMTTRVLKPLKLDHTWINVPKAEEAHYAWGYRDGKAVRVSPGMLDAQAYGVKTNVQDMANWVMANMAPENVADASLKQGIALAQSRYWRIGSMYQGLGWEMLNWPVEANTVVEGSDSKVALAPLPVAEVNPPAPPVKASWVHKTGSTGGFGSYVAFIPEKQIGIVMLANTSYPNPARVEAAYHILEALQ

The koff is the first-order rate constant of dissociation. Low values mean a long-lived complex, high ones a short-lived complex. For `CC1=C[C@@H](C(N)=O)N2C[C@@H]1N(O[C@H](F)C(=O)O)C2=O` [ETX1317], the kinact/Ki on E. cloacae P99 [1] was 3.9 (±0.2) × 10^4 M^–1 s^–1; at CTX-M-15 [6], 4.8 (±0.4) × 10^6 M^–1 s^–1; at KPC-2 [7], 4.9 (±0.2) × 10^4 M^–1 s^–1; on OXA-48 [14], 5.3 (±0.2) × 10^4 M^–1 s^–1; at OXA-24 it was 4.6 (±0.2) × 10^3 M^–1 s^–1. Also, the partition ratio on KPC-2 [2] (KPC-2, 15 min incubation (not shown)) was found to be 1.1; on KPC-2 [2] (KPC-2, incubation of enzyme and inhibitor 3 h, ambient temperature) it was 1.1; on CTX-M-15 [3] it was 0.7; at OXA-48 [4], 1.1; at SHV-5 [5], 0.9; on AmpC, 1.0. In addition, the “potency of CTX-M-14 inhibition relative to avibactam” value in the assay with CTX-M-14 is listed as “about 10 fold”. Further, the koff stood at 9.2e-05 s⁻¹ on E. cloacae P99 [8]; 0.00052 s⁻¹ on KPC-2 [9]; 0.00013 s⁻¹ at CTX-M-15 [10]; 0.008 s⁻¹ on TEM-1 [11]; 0.002 s⁻¹ on SHV-5 [12]; 0.0006 s⁻¹ at P. aeruginosa AmpC. In addition, the Ki on TEM-1 [13] is 0.34 nM.
